The assay relates to HBV. The assay can be described thus: HBV-DNA Antiviral Assay Using HepG2.2.15 Cells (extracellular HBV DNA by qPCR). The assay is classed as cell-based, hepatitis B virus (HBV). The note with it: Hepatitis B virus; HBV DNA inhibition, HepG2.2.15 cells, extracellular HBV DNA by qPCR; read-out: EC50. The method, then: The following assay procedure describes the HBV antiviral assay. This assay uses HepG2.2.15 cells, which have been transfected with HBV genome, and extracellular HBV DNA quantification as endpoint. Cell viability is assessed in parallel by measuring the intracellular ATP content using the CellTiter-Glo® reagent from Promega.
On day 0, HepG2.2.15 cells were seeded in 96-well plates at a density of 6.0×10^4 cells/well (0.1 mL/well). The cells were incubated at 37° C. and 5% CO2.
On day 1, the test articles were diluted and added to cell culture wells (8 concentrations, 4-fold dilution, in duplicate). GLS4, Tenofovir and Sorafenib were used as reference compounds. 100 μL of culture medium containing the compounds was added to the plate, and the final total volume per well was 200 μL. The final concentration of DMSO in the culture medium was 0.5%. The plate map of compound treatment is shown below. The cells were cultured at 37° C. and 5% CO2 for 3 days.
On day 4, the plates were refreshed with culture media with compounds.
On day 7, cell viability was assessed using the CellTiter-Glo®, and the cell culture supernatants were collected for determination of HBV DNA by qPCR.
Extracellular DNA was isolated with QIAamp 96 DNA Blood Kit per the manufacturer's manual. HBV DNA was then quantified by qPCR with HBV specific primers and probes as specified in Table 1 using the FastStart Universal MasterMix from Roche on an ABI-7900HT. The PCR cycle program consisted of 95° C. for 10 min, followed by 40 cycles at 95° C. for 15 sec and 60° C. for 1 min.
A DNA standard was prepared by dilution of the pAAV2 HBV1.3 plasmid with concentrations ranging from 10 to 1×10^7 copies/uL and used to generate a standard curve by plotting Ct value vs. the concentration of the HBV plasmid DNA standard. The quantity of HBV DNA in each sample was determined by interpolating from the standard curve.
Cell viability was calculated as follows: % Cell viability=(luminescence value of test sample−average luminescence value of blank)/(average luminescence value of 0.5% DMSO control−average luminescence of blank)×100%. HBV DNA inhibition was calculated as follows: 100−(HBV DNA copy number of test sample−HBV DNA copy number of ETV)/HBV DNA copy number of 0.5% DMSO control−HBV DNA copy number of ETV)×100%. The CC50, EC50 and EC90 values were determined by dose-response curves fitted by GraphPad Prism using “log (agonist) vs. response—Variable slope”.
`C#CC1(NC(=O)C(=O)c2c(C)c(C(=O)Nc3ccc(F)c(C#N)c3)n(C)c2C)CC(F)(F)C1` [Compound 24, N-(3-cyano-4-fluoro-phenyl)-4-[2-[(1-ethynyl-3,3-difluoro-cyclobutyl)amino]-2-oxo-acetyl]-1,3,5-trimethyl-pyrrole-2-carboxamide]: the EC50 was less than 1 nM.

Regarding `C#CC1(NC(=O)C(=O)c2c(C)c(C(=O)Nc3ccc(F)c(C(F)(F)F)c3)n(C)c2C)COC1` [Compound 34, 4-[2-[(3-ethynyloxetan-3-yl)amino]-2-oxo-acetyl]-N-[4-fluoro-3-(trifluoromethyl)phenyl]-1,3,5-trimethyl-pyrrole-2-carboxamide], the EC50 is less than 1 nM.

As to `Cc1c(C(=O)C(=O)NC(C)(C)c2nnco2)c(C)n(C)c1C(=O)Nc1ccc(F)c(C#N)c1` [Compound 139, N-(3-cyano-4-fluoro-phenyl)-1,3,5-trimethyl-4-[2-[[1-methyl-1-(1,3,4-oxadiazol-2-yl)ethyl]amino]-2-oxo-acetyl]pyrrole-2-carboxamide], the concentration giving a half-maximal response (EC50) lay within 1 to 10 nM.

In the case of `Cc1c(C(=O)C(=O)NC(C)(C)c2cccnc2)c(C)n(C)c1C(=O)Nc1ccc(F)c(C(F)(F)F)c1` [Compound 100, N-[4-fluoro-3-(trifluoromethyl)phenyl]-1,3,5-trimethyl-4-[2-[[1-methyl-1-(3-pyridyl)ethyl]amino]-2-oxo-acetyl]pyrrole-2-carboxamide], the EC50 was less than 1 nM.

Turning to `Cc1c(C(=O)C(=O)NC(C)(C)c2nccs2)c(C)n(C)c1C(=O)Nc1ccc(F)c(C#N)c1` [Compound 85, N-(3-cyano-4-fluoro-phenyl)-1,3,5-trimethyl-4-[2-[(1-methyl-1-thiazol-2-yl-ethyl)amino]-2-oxo-acetyl]pyrrole-2-carboxamide], the EC50 fell in the range of 1 to 10 nM.

`C#CC1(NC(=O)C(=O)c2c(C)c(C(=O)Nc3ccnc(F)c3Br)n(C)c2C)COC1` [Compound 67, N-(3-bromo-2-fluoro-4-pyridyl)-4-[2-[(3-ethynyloxetan-3-yl)amino]-2-oxo-acetyl]-1,3,5-trimethyl-pyrrole-2-carboxamide]: the concentration for a half-maximal effect (EC50) was 10 to 100 nM.

With `C#CCNC(=O)C(=O)c1c(C)c(C(=O)Nc2ccc(F)c(C#N)c2)n(C)c1Cl` [Compound 9, 5-chloro-N-(3-cyano-4-fluoro-phenyl)-1,3-dimethyl-4-[2-oxo-2-(prop-2-ynylamino)acetyl]pyrrole-2-carboxamide], the half-maximal effective concentration (EC50) is 1 to 10 nM.

As for `Cc1c(C(=O)C(=O)NC(C)(C)c2ccnn2C)c(C)n(C)c1C(=O)Nc1ccc(F)c(C(F)(F)F)c1` [Compound 138, N-[4-fluoro-3-(trifluoromethyl)phenyl]-1,3,5-trimethyl-4-[2-[[1-methyl-1-(2-methylpyrazol-3-yl)ethyl]amino]-2-oxo-acetyl]pyrrole-2-carboxamide], the concentration giving a half-maximal response (EC50) fell in the range of 1 to 10 nM.

`Cc1c(C(=O)C(=O)NC(C)(C)c2nccs2)c(C)n(C)c1C(=O)Nc1ccc(F)c(C(F)(F)F)c1` [Compound 103, N-[4-fluoro-3-(trifluoromethyl)phenyl]-1,3,5-trimethyl-4-[2-[(1-methyl-1-thiazol-2-yl-ethyl)amino]-2-oxo-acetyl]pyrrole-2-carboxamide]: the EC50 fell in the range of 1 to 10 nM.

On to `C#C[C@@H](NC(=O)C(=O)c1c(C)c(C(=O)Nc2ccc(F)c(C#N)c2)n(C)c1C)C1COC1` [Compound 58, N-(3-cyano-4-fluoro-phenyl)-1,3,5-trimethyl-4-[2-oxo-2-[[(1S)-1-(oxetan-3-yl)prop-2-ynyl]amino]acetyl]pyrrole-2-carboxamide], for which the EC50 lay within 1 to 10 nM.

As for `Cc1c(C(=O)C(=O)NC(C)(C)c2cnn(C3CC3)c2)c(C)n(C)c1C(=O)Nc1ccc(F)c(C(F)(F)F)c1` [Compound 136, 4-[2-[[1-(1-cyclopropylpyrazol-4-yl)-1-methyl-ethyl]amino]-2-oxo-acetyl]-N-[4-fluoro-3-(trifluoromethyl)phenyl]-1,3,5-trimethyl-pyrrole-2-carboxamide], the concentration giving a half-maximal response (EC50) was 1 to 10 nM.

Regarding `C#C[C@H](COC)NC(=O)C(=O)c1c(C)c(C(=O)Nc2ccc(F)c(C#N)c2)n(C)c1C` [Compound 28b, N-(3-cyano-4-fluoro-phenyl)-4-[2-[[(1R)-1-(methoxymethyl)prop-2-ynyl]amino]-2-oxo-acetyl]-1,3,5-trimethyl-pyrrole-2-carboxamide], the EC50 is 1 to 10 nM.

For `C#CC1(NC(=O)C(=O)c2c(C)c(C(=O)Nc3ccc(F)c(C#N)c3)n(C)c2C)CCC1` [Compound 15, N-(3-cyano-4-fluoro-phenyl)-4-[2-[(1-ethynylcyclobutyl)amino]-2-oxo-acetyl]-1,3,5-trimethyl-pyrrole-2-carboxamide], the EC50 is less than 1 nM.

`C#CCNC(=O)C(=O)c1c(C)c(C(=O)Nc2ccc(F)c(C(F)(F)F)c2)n(C)c1C` [Compound 1, N-[4-fluoro-3-(trifluoromethyl)phenyl]-1,3,5-trimethyl-4-[2-oxo-2-(prop-2-ynylamino)acetyl]pyrrole-2-carboxamide]: the EC50 was in the range of 1 to 10 nM.

On to `C#C[C@@](C)(NC(=O)C(=O)c1c(C)c(C(=O)Nc2ccc(F)c(C#N)c2)n(C)c1C)C(F)(F)F` [Compound 79a, N-(3-cyano-4-fluoro-phenyl)-1,3,5-trimethyl-4-[2-oxo-2-[[(1R)-1-methyl-1-(trifluoromethyl)prop-2-ynyl]amino]acetyl]pyrrole-2-carboxamide], for which the concentration giving a half-maximal response (EC50) lay in the range of 1 to 10 nM.

Turning to `C#CCNC(=O)C(=O)c1cn(C)c(C(=O)Nc2ccc(F)c(C#N)c2)c1F` [Compound 6, N-(3-cyano-4-fluoro-phenyl)-3-fluoro-1-methyl-4-[2-oxo-2-(prop-2-ynylamino)acetyl]pyrrole-2-carboxamide], the half-maximal effective concentration (EC50) lay in the range of 100 to 1000 nM.

`C#C[C@@](C)(CO)NC(=O)C(=O)c1c(C)c(C(=O)Nc2ccc(F)c(C#N)c2)n(C)c1C` [Compound 64b, N-(3-cyano-4-fluoro-phenyl)-1,3,5-trimethyl-4-[2-oxo-2-[[(1S)-1-(hydroxymethyl)-1-methyl-prop-2-ynyl]amino]acetyl]pyrrole-2-carboxamide]: the concentration for a half-maximal effect (EC50) is 1 to 10 nM.

Turning to `C#C[C@@](CO)(NC(=O)C(=O)c1c(C)c(C(=O)Nc2ccc(F)c(C#N)c2)n(C)c1C)C1CC1` [Compound 63b, N-(3-cyano-4-fluoro-phenyl)-1,3,5-trimethyl-4-[2-oxo-2-[[(1S)-1-cyclopropyl-1-(hydroxymethyl)prop-2-ynyl]amino]acetyl]pyrrole-2-carboxamide], the EC50 is 1 to 10 nM.

As for `Cc1c(C(=O)C(=O)NC2(C#C[C@@H](C)O)COC2)c(C)n(C)c1C(=O)Nc1ccc(F)c(C#N)c1` [Compound 94a, N-(3-cyano-4-fluoro-phenyl)-1,3,5-trimethyl-4-[2-oxo-2-[[3-[(3R)-3-hydroxybut-1-ynyl]oxetan-3-yl]amino]acetyl]pyrrole-2-carboxamide], the 50% effective concentration (EC50) lay within 10 to 100 nM.

Consider `C#CCNC(=O)C(=O)c1cc(C(=O)Nc2ccc(F)c(C#N)c2)n(C)c1Cl` [Compound 25, 5-chloro-N-(3-cyano-4-fluoro-phenyl)-1-methyl-4-[2-oxo-2-(prop-2-ynylamino)acetyl]pyrrole-2-carboxamide], for which the EC50 fell in the range of 100 to 1000 nM.

With `Cc1c(C(=O)C(=O)NC(C)(C)c2ccc[nH]c2=O)c(C)n(C)c1C(=O)Nc1ccc(F)c(C#N)c1` [Compound 161, N-(3-cyano-4-fluoro-phenyl)-1,3,5-trimethyl-4-[2-[[1-methyl-1-(2-oxo-1H-pyridin-3-yl)ethyl]amino]-2-oxo-acetyl]pyrrole-2-carboxamide], the concentration giving a half-maximal response (EC50) lay in the range of 1 to 10 nM.

(Values after patent US12599582B2, “Pyrrole compounds” (ALIGOS THERAPEUTICS, INC., priority 2019, dated 2026).)
